Data set [1] in a line: Measurement of circular dichroism (mean residue ellipticity at 222 nm). The data set is classed as physicochemical. To be noted: insulinotropin as agent. From the text:
In general, the structure of a polypeptide in an aqueous buffered solution is in constant flux between portions thereof being random coil and alpha-helix configurations. For the polypeptides used in the following examples, the predominant structure is a random coil since the alpha-helix configuration is unstable in the absence of bound surfactant. According to the present invention adding surfactant to an aqueous solution of a polypeptide stabilizes the alpha-helix configuration. Circular dichroism is a measurement of the amount of the alpha-helix configured polypeptide present in the solution. Thus, circular dichroism provides an indirect measurement of the degree of binding of the surfactant to the polypeptide. (See, for example, Epand R. M., Epand R. F., Orlowski R. C., Schuleter R. J., Boni L. T. and Hui S. W., Biochemistry 22, 5074-5084 (1983); Hui, S. W., Epand R. M., Dell K. R., Epand R. F. and Orlowski R. C., Biochimica Biophysica Acta 772, 264-272 (1984); Epand R. M., Epand R. F., and Orlowski R. C., International Journal Peptide Protein Research 25 105-111; Epand R. M., Epand R. F., Orlowski R. C., Seyler J. K. and Colescott R. L., Biochemistry 25, 1964-1968; Epand R. M., Seyler J. K. and Orlowski R. C., European Journal Biochemistry 159, 125-127 (1986); Wiersema P. H., Loeb A. L. and Overbeek, J., Colloid Interface Science 22, 78-99 (1966)).
The surfactant/peptide circular dichroism (CD) spectra were obtained in a 2 mm path-length cell (110-Q-2 Model, AVIV, Lakewood, N.J.) at 32° C. The cell was initially loaded with 0.60 mL of a solution containing about 0.25 mg/mL of the peptide in 10 mM sodium chloroacetate (pH 3.5) or 10 mM sodium borate (pH 9.0). The buffers were selected to minimize the effect of the temperature on the pH of the solution and to minimize light absorption, thereby optimizing the signal-to-noise ratio (SNR). The peptide concentration was determined by spectrophotometry, with log-log correction for light scattering. The surfactant concentration was increased step-wise by titration of concentrated surfactant stock directly into the CD cell, followed by eight inversions of the cell, with the air bubble providing the mixing turbulence. After mixing, the cell was placed into the AVIV 62 CD spectrometer (AVIV, Lakewood, N.J.). In order to approximate temperature and chemical equilibrium, the sample remained in the spectrometer 5 minutes before a reading was taken. The CD spectrum was taken using a band pass of 1 nm, a data interval of 1 nm, and a data averaging time of 10 seconds. The mean residue ellipticity is the ellipticity divided by the path length in cm times the amino acid residue concentration in decimoles/cm^3. See Methods in Enzymology, Vol 130, pp 208-269, Yang et al, "Calculation of Protein Conformation from Circular Dichroism" (1986).
(§1) The measurement procedures described above were conducted on an aqueous solution of the protein insulinotropin, with TWEEN® 20 (MW=1126 g/mol) as the surfactant, with the following modifications. The insulinotropin donor solution concentration was 0.12 mg/mL. One test was run in 10 mM sodium borate at pH 9.0 and another test in 10 mM sodium chloroacetate at pH 3.5.
(§2) Fractional changes (%δ) are defined as the difference between the reading at a given surfactant concentration (Ec) minus the reading at zero surfactant (E0), the quantity divided by the difference between the reading at saturated surfactant concentration (Es) minus the reading at zero surfactant (E0), i. e. %δ=(Ec -E0)/(Es-E0).
The measurement procedures described earlier were conducted on an aqueous solution of insulinotropin as the agent, and TWEEN® 40 (molecular weight 1282 g/mol) as the surfactant with the following changes. The insulinotropin concentration was initially 0.29 mg/mL, and 0.21 mg/mL after the final TWEEN® 40 addition and the temperature was held at 32° C. Two tests were conducted at two different concentrations of TWEEN® 40. […]

The nature of data set [2]: Hydrophobicity by hydrophobic interaction chromatography (HIC), phenyl Superose column (retention time, ta/tm). The data set is classed as physicochemical. To be noted: for HIC Retention Time (Phenyl Superose Col.): no surfactant. The protocol: The hydrophobicity of an agent (eg, an agent such as a polypeptide or protein in solution, as well as the relative increase or decrease thereof) is determined by passing the agent-containing solution through a chromatography column filled with a particular "hydrophobic interaction" bead material and measuring either (1) the time required for the agent to elute (ie, pass through) the column or (2) the volume of liquid (ie, the same liquid used in the agent-containing sample, but with the agent removed) required to be pumped through the column in order to elute the agent. For the purposes of the present invention, the hydrophobicity of an agent is defined in terms relative to the marker compound, N-acetyl tryptophanamide (sold by Sigma Chemical, St. Louis, Mo.), which has a somewhat moderate hydrophobicity. Hydrophobicity, as that term is used herein, is measured using a 5 mm diameter glass column having a length of 5 cm (ie, column volume of 1.0 mL) and packed with cross-linked agar beads having an average particle size of 13.5 μm. Examples of suitable hydrophobic bead materials include cross-linked agar gel beads (Superose 12) having hydrophobic ligands attached to the agar via chemically stable ether linkages ((Superose 12)--O--CH2 --CHOH--CH2 --O--R) such as alkyl-Superose wherein R is --CH2 --C(CH3)3 and phenyl-Superose wherein R is phenyl, both of which are sold in pre-packaged column form by Pharmacia Biotech, Inc. of Piscataway, N.J. Immediately downstream from the column is placed a flow cell which permits continuous UV absorbance measurements of the solution flowing out of the column. Suitable flow cells and UV absorbance detectors are sold by Perkin-Elmer Corp., Applied Biosystems, Foster City, Calif. Hydrophobicity measurements are conducted at 32° C. with the same buffer that is used in the electrotransport system which is used to deliver the agent (eg, transdermally) to the patient. The buffer strength used in the hydrophobicity measurements is 10 mM ionic strength. The term "certain hydrophobicity" as used herein, means that the time required for the agent to elute from the column, relative to the time required for N-acetyl tryptophanamide to elute, is as follows:
ta /tm >0.7, and preferably ta /tm >3
ta is the time at which the peak UV absorbance value is recorded for the beneficial agent in the flow cell, less the time required to initially fill the column with the agent-containing solution (ie, dead volume retention time); and
tm is the time at which the peak UV absorbance value is recorded for the N-acetyl tryptophanamide marker in the flow cell, less the time required to initially fill the column with the marker-containing solution (ie, dead volume retention time).
The above described measurement of agent hydrophobicity is substantially independent of column size and flow rate through the column.
One method of measuring the hydrophobicity of an agent such as a polypeptide or protein is by hydrophobic interaction chromatography (HIC). The principles and conditions associated with HIC are fully described in Protein Purification: Principles, High Resolution Methods, and Applications, Janson and Ryden, Eds., pp. 207-226 (1989), the pertinent portions of which are incorporated herein by reference. This method requires passing a composition through a hydrophobic interaction column and measuring the volume of solvent required for its complete elution. The hydrophobic sites on the agent are generally attracted to hydrophobic groups, such as aryl groups, affixed to beads placed within the column. A preferred HIC column material is phenyl-superose (Pharmacia, Sweden), a cross-linked polysaccharide which has been covalently modified to have pendant hydrophobic aryl groups. These pendant groups are similar to the hydrophobic or lipophilic species in the skin layers. Thus, this hydrophobic interaction column approximates, and is a good in vitro model for, an animal's skin layer as a barrier to transport of a polypeptide or protein. […]

A short description of data set [3]: Electrophoretic mobility by capillary zone electrophoresis. Format: physicochemical. To be noted: no surfactant. The protocol:
Since electrophoretic mobility (ie, the ability of a drug/agent to migrate in an electric field) is an important aspect of electrotransport drug delivery, the electrophoretic mobility of the drug/agent being delivered is predictive of suitability for transdermal electrotransport delivery. Electrophoretic mobility measurements were performed using a capillary zone electrophoresis instrument (model 2100 P/ACE instrument, Beckman Instruments, Inc., Palo Alto, Calif.). At acid pH values DB-WAX, DB-1, DB-17 (J&W Scientific, Folsom, Calif.) capillary columns were used either with 50 or 100 micron internal diameter column and CElect H75 (Supelco, Bellefonte, Pa.) capillary column with a 75 micron internal diameter. At alkaline pH values uncoated silica capillaries of length 57 cm with an internal diameter of 75 microns were used with an applied voltage of 20 kV. If any electroosmotic flow was present, it was detected using a neutral marker such as 0.01% benzyl alcohol (SIGMA, St. Louis, Mo.) or 1/500 mesityl oxide (Applied Biosystems, Foster City, Calif.). The optimum voltage was determined by doing an Ohm's Law test on each buffer and capillary system. The temperature of the capillary columns was set at 32° C. and a two second pressure injection was done. A UV detector was used to monitor peptide and markers at either 214 or 280 nm.
Voltage injection had to be used for the 27 cm length column. The voltage applied varied depending on the capillary length.
The following equation was used to determine electrophoretic mobility μ. [formula]
If the electroosmotic flow is detected, the following equation can be used.
μpeptide =μtotal -μneutral marker
as §1, §2
The measurement procedures described earlier were conducted in this example on an aqueous solution containing insulinotropin as the agent and dodecyl trimethyl ammonium chloride (DTAC) as the ionic surfactant with the following modifications. […]
The same measurement procedures were conducted using an aqueous solution of salmon calcitonin as the agent and the zwitterionic dodecyl sulfobetaine as the surfactant with the following modifications. The temperature was initially 32° C., the surfactant concentration was varied up to 30 mM, and the calcitonin concentration was 0.06 to 0.08 mM. Tables 7, 8, and 9 below provide the results obtained in terms of polypeptide ellipticity expressed as a function of zwitterionic surfactant concentration at pH 3.5 in 12 mM sodium chloroacetate (Table 7), 5.0 in 4 mM piperazine HCI (Table 8), and 6.5 in 15 mM sodium cacodylate (Table 9), respectively. Table 8, in addition, provides the results obtained on electrophoretic mobility and HIC retention time in a phenyl superose column at pH 5.0.

The conditions of data set [4]: pH 6.5.
Method: A. Preparation of Human Skin Samples
Human cadaver skin was prepared by first removing about 1 mm thick skin samples in the form of strips. The skin strips were placed in polyethylene bags, sealed and placed in a refrigerator at about 4° C. for temporary storage. Prior to use in the electrotransport cell, the skin strips were placed in one-liter beakers containing water at 60° C. for about 90 seconds with gentle stirring. Then, the skin strips were removed and placed onto the absorbent side of a piece of BENCHKOTE™ material with the dermis side down. Using flat tipped tweezers to retain the dermis, the epidermis was removed from each strip with a round-tip spatula. Each epidermis, stratum corneum side up, was transferred to a PYREX™ glass tray filled with water. Each floating epidermis was stretched essentially flat. After removal from the water 2.22 cm (7/8 in) diameter disks of each epidermis were punched out of areas having negligible surface damage. The discs were stored at 4° C. in a sealed container with water droplets to maintain their moisture.
B. Set-up of Electrotransport Cell and Composition […]
The solution concentration of the polypeptide in the donor compartment 44 was, unless otherwise specified, 1 mM. […] The polypeptide flux was determined by periodic sampling of the solution in the receptor compartment 46. […]

These results are taken from patent US6328728A, “Composition and method for enhancing electrotransport agent delivery” (Alza Corporation, priority 1997, dated 2001).

Take `CCCCCCCCCCCC[N+](C)(C)C.[Cl-]` [DTAC, dodecyl trimethyl ammonium chloride, reference compound]: the “surfactant concentration at which an ellipticity of -9000 occurs” value in data set [1] is given as “about 3.0 mM”.
On to “Cytochrome C: protein, molecular weight 12,400 g/mol”, for which, in data set [2], the “HIC Retention Time (Phenyl Superose Col.)” value (from here on “HIC Retention Time”) was determined as 2.0 min. Moreover, the “Electrophoretic Mobility” value in data set [3] is 2.5 × 10^-4 cm^2 /V-s.
For the molecule “D-Glu-D-Tyr-D-Leu-D-Lys-D-Ata-D-Leu-D-Leu-D-Ser-D-Lys-D-Leu-NH2 [Model Decapeptide, reference compound]”, the ta /tm in data set [2] (10 mM HIS buffer, pH 7.0) is listed as 0.6; in data set [2] (HIS buffer, pH 7.2) it was 0.5; in data set [2] (pH 6.5 (10 mM histidine), no enhancer), 0.8; in data set [2] (pH 6.5 (10 mM histidine), no enhancer, listed as decapeptide) it was “about 0.8”; in data set [2] (pH 6.5, with 3 mM Tween 20), 0.9. Also, the “in vitro Skin Flux” value in data set [4] is listed as “l.3 μg/cm^2 -hr”.
As to “Lysozyme: protein, molecular weight 14,315 g/mol”, the “HIC Retention Time” value in data set [2] turned out to be 24.0 min. For the same molecule, the “Electrophoretic Mobility” value in data set [3] is listed as 2.4 × 10^-4 cm^2 /V-s.

B1: Ribonuclease: protein, molecular weight 13,686 g/mol (protein, UniProt P61823 27-150, looked up)
Ribonuclease pancreatic: KETAAAKFERQHMDSSTSAASSSNYCNQMMKSRNLTKDRCKPVNTFVHESLADVQAVCSQKNVACKNGQTNCYQSYSTMSITDCRETGSSKYPNCAYKTTQANKHIIVACEGNPYVPVHFDASV
On to B1, for which the “HIC Retention Time” value in data set [2] was 12.1 min. Also, in data set [3], the “Electrophoretic Mobility” value was 1.9 × 10^-4 cm^2 /V-s.
